T1: Saci-PP2A (Sulfolobus acidocaldarius, UniProt Q4JAD1)
T1 sequence (Q4JAD1 1-293): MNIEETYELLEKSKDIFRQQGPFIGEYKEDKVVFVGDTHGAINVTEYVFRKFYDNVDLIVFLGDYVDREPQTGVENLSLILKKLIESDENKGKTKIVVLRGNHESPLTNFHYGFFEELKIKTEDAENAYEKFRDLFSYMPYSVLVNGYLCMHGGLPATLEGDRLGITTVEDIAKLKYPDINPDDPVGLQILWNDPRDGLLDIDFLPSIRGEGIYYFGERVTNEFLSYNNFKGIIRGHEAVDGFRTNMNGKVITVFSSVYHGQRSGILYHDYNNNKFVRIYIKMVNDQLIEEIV

B1: Saci-PTP (Sulfolobus acidocaldarius DSM 639) (protein)
chain: MYWVKKHVIGGSAIPYTQDEIIGWINEGVKRVLVLPEEFEIDEAWGSLEYYISVLKSFNIEYLYSPIPDGRAPSENQFLEIYKWLRKDKGNLVHCVGGIGRTGTILASYLVLEENMSAEEAIEEVRRVRPGAVQTYEQELFVFKVEKMKDKWKIL

What was measured:
[1] = molecular target: T1, Saci-PP2A; assay: malachite green phosphate release assay, inhibition; format: biochemical; settings: read-out: % activity at 10 nM
[2] = substrate: O=[N+]([O-])c1ccc(OP(=O)(O)O)cc1; assay: purified protein; format: biochemical, Sulfolobus acidocaldarius; settings: 0.1 M HEPES/KOH pH 6.5, 70 °C, substrate inhibition above 2 mM

Molecule | activity at 0.01 µM [1] | Vmax [2]
C=C1[C@@H](O)[C@@H]2O[C@]3(CC[C@H](/C=C/[C@@H](C)[C@@H]4CC(C)=C[C@@]5(O[C@H](C[C@@](C)(O)C(=O)O)CC[C@H]5O)O4)O3)CC[C@H]2O[C@@H]1[C@@H](O)C[C@H](C)[C@H]1O[C@@]2(CCCCO2)CC[C@H]1C [okadaic acid] | 56% | –
B1 | – | 3.7 µmol/min/mg
